Test results: ChEMBL document CHEMBL1201862, “PubChem BioAssay data set” (2004)
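Compound exposure: 48 hours, 5 concentrations, 96-well plates. GI50 = concentration required for 50% inhibition of growth.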 Activity calls are given as the source filed them. Rule as the data show it: active = GI50 up to about 1.1 µM and inactive = higher.

Key:
Experiment in all cases: growth of human tumour cells (NCI), 48 h
[1] = system: SNB-75
[2] = system: CCRF-CEM
[3] = system: SNB-19
[4] = system: SK-MEL-2
[5] = system: RPMI-8226
[6] = system: M19-MEL
[7] = system: DLD-1
[8] = system: HCT-15
[9] = system: OVCAR-4
[10] = system: HCC 2998
[11] = system: Malme-3M
[12] = system: COLO 205
[13] = system: NCI-H522
[14] = system: SF-268
[15] = system: DMS-273
[16] = system: SR
[17] = system: A549
[18] = system: IGROV-1
[19] = system: SK-MEL-5
[20] = system: OVCAR-3
[21] = system: SF-539
[22] = system: UO-31
[23] = system: HL-60
[24] = system: KM-20L2
[25] = system: OVCAR-5
[26] = system: SNB-78
[27] = system: LOX IMVI
[28] = system: SW-620
[29] = system: UACC-62
[30] = system: M14
[31] = system: KM12
[32] = system: U-251
[33] = system: HOP-62
[34] = system: NCI-H460
[35] = system: EKVX
[36] = system: 786-0
[37] = system: A498
[38] = system: SK-MEL-28
[39] = system: NCI-H23
[40] = system: OVCAR-8
[41] = system: NCI-H226
[42] = system: ACHN
[43] = system: HCT-116
[44] = system: UACC-257
[45] = system: CAKI-1
[46] = system: HOP-18
[47] = system: TK-10
[48] = system: RXF 393
[49] = system: HT-29
[50] = system: DMS-114
[51] = system: K562
[52] = system: XF498
[53] = system: HOP-92
[54] = system: SK-OV-3
[55] = system: MOLT-4
[56] = system: SF-295
[57] = system: LXFL 529
[58] = system: SN12C
[59] = system: PC-3
[60] = system: MDA-MB-231
[61] = system: MDA-N
[62] = system: DU-145
[63] = system: Hs-578T
[64] = system: MDA-MB-435
[65] = system: BT-549
[66] = system: T47D
[67] = system: RXF 631
[68] = system: NCI/ADR-RES

Measured: GI50

N[C@H](COCc1ccccc1)c1ccccc1
> 50.5 µM: [8]
inactive: [1] 20 µM | [2] 23.8 µM | [3] 30.6 µM | [4] 21.1 µM | [5] 13.1 µM | [6] 25 µM | [7] 24.9 µM | [9] 20.7 µM | [10] 29.9 µM | [11] 33.4 µM | [12] 14.9 µM | [13] 16.5 µM | [14] 42.1 µM | [15] 23.1 µM | [16] 23.3 µM | [17] 33.5 µM | [18] 39 µM | [19] 20.1 µM | [20] 26.7 µM | [21] 27.9 µM | [22] 30.3 µM | [23] 11.9 µM | [24] 24.5 µM | [25] 24.9 µM | [26] 33.4 µM | [27] 29.3 µM | [28] 28.2 µM | [29] 32.1 µM | [30] 23.1 µM | [31] 27.4 µM | [32] > 56 µM | [33] > 46.5 µM | [34] 22.8 µM | [35] 33 µM | [36] 29.3 µM | [37] 32.4 µM | [38] 59.8 µM | [39] 23 µM | [40] 35.6 µM | [41] 27.7 µM | [42] 31.5 µM | [43] 22.5 µM | [44] 28.1 µM | [45] 23.7 µM | [46] 25.9 µM | [47] 32.1 µM | [48] 27.3 µM | [49] 28.8 µM | [50] 23.2 µM | [51] 28 µM | [52] 21.1 µM | [53] 23.1 µM | [54] 29.6 µM | [55] 16.7 µM | [56] 30.5 µM | [57] 20.5 µM | [58] 27.7 µM

COc1ccc2c(=O)cc(-c3ccc(OC)c(OC)c3OC)oc2c1
inactive: [1] 23.4 µM | [59] 60.4 µM | [2] > 31.6 µM | [3] > 60.4 µM | [5] 16.9 µM | [6] 67.9 µM | [7] 53.3 µM | [9] > 93.3 µM | [10] > 63.8 µM | [11] 40.4 µM | [12] > 71.8 µM | [13] > 39.8 µM | [14] > 60.1 µM | [60] 38.7 µM | [16] 74.8 µM | [17] 4.81 µM | [18] > 83.4 µM | [19] 49 µM | [20] > 44.4 µM | [21] > 57.3 µM | [22] > 100 µM | [23] 30.1 µM | [24] 26.5 µM | [25] > 69 µM | [61] 95.3 µM | [27] > 75.7 µM | [28] > 100 µM | [29] 48.8 µM | [30] > 100 µM | [31] > 43.7 µM | [32] > 100 µM | [33] > 85.3 µM | [62] > 100 µM | [63] 47.6 µM | [34] 99.3 µM | [35] > 64.3 µM | [36] > 100 µM | [38] > 100 µM | [39] > 100 µM | [40] > 100 µM | [41] > 65.9 µM | [42] > 63.2 µM | [43] > 100 µM | [44] > 100 µM | [45] > 82.4 µM | [47] > 100 µM | [48] > 80.9 µM | [49] 98.9 µM | [64] > 100 µM | [65] > 100 µM | [50] 76.2 µM | [51] 37.1 µM | [66] > 100 µM | [52] 46.7 µM | [67] 97.3 µM | [53] 33.1 µM | [54] > 89.1 µM | [55] 55.5 µM | [56] 48.1 µM | [68] 28.4 µM | [57] 40.4 µM | [58] 61.4 µM
> 100 µM: [8]

COC(=O)c1cc(O)ccc1O [METHYL 2,5-DIHYDROXYBENZOATE]
inactive: [1] > 100 µM | [2] > 100 µM | [3] > 100 µM | [4] > 100 µM | [5] > 100 µM | [6] > 100 µM | [9] > 100 µM | [10] > 100 µM | [11] > 100 µM | [12] > 100 µM | [13] 93.1 µM | [14] > 100 µM | [15] > 100 µM | [17] > 100 µM | [18] > 100 µM | [19] > 100 µM | [20] > 100 µM | [21] > 100 µM | [22] > 100 µM | [23] > 100 µM | [25] > 100 µM | [26] > 100 µM | [27] > 100 µM | [28] > 100 µM | [29] > 100 µM | [30] > 100 µM | [31] > 100 µM | [32] > 100 µM | [33] > 100 µM | [34] > 100 µM | [35] > 100 µM | [36] > 100 µM | [38] > 100 µM | [40] > 100 µM | [41] > 100 µM | [42] > 100 µM | [44] > 100 µM | [45] > 100 µM | [47] > 100 µM | [48] > 100 µM | [49] > 100 µM | [50] > 100 µM | [51] > 100 µM | [52] > 100 µM | [67] > 100 µM | [53] > 100 µM | [54] > 100 µM | [55] > 100 µM | [56] > 100 µM | [57] > 100 µM | [58] > 100 µM
> 100 µM: [8]

CCOC(=O)C(CC/C=C\c1ccccc1)N1CCC[C@H]1C(=O)OC (stereo not given in full)
inactive: [1] > 100 µM | [2] 94.8 µM | [3] > 100 µM | [4] > 100 µM | [5] 29.7 µM | [6] > 100 µM | [7] > 100 µM | [9] > 100 µM | [10] > 100 µM | [11] > 100 µM | [12] > 100 µM | [13] > 100 µM | [14] > 100 µM | [15] > 100 µM | [16] 40 µM | [17] > 100 µM | [18] > 100 µM | [19] > 100 µM | [20] > 100 µM | [21] > 100 µM | [22] > 100 µM | [23] 35.8 µM | [24] > 100 µM | [25] > 100 µM | [26] > 100 µM | [27] > 100 µM | [28] > 100 µM | [29] > 100 µM | [30] > 100 µM | [31] > 100 µM | [32] > 100 µM | [33] > 100 µM | [34] > 100 µM | [35] > 100 µM | [36] > 100 µM | [37] > 100 µM | [38] > 100 µM | [39] > 100 µM | [40] > 100 µM | [41] > 100 µM | [42] > 100 µM | [43] > 100 µM | [44] > 100 µM | [45] > 100 µM | [46] > 100 µM | [47] > 100 µM | [48] > 100 µM | [49] > 100 µM | [50] 59.6 µM | [51] 49.4 µM | [52] > 100 µM | [53] > 100 µM | [54] > 100 µM | [55] 39.1 µM | [56] > 100 µM | [57] > 100 µM | [58] > 100 µM
